The values that follow come from article PMC10254233, “Synthesis and In Vitro Biological Evaluation of p-Carborane-Based Di-tert-butylphenol Analogs” (Molecules, 2023).

Data set [1] is described as follows: Lipophilicity logD7.4 by HPLC. The conditions noted are these: pH 7.4, HPLC method.
A further data set concerns the target T1, human recombinant COX-2 (Homo sapiens, UniProt P35354).
T1 construct: purchased Cayman Chemical Company
T1 sequence (P35354 18-604): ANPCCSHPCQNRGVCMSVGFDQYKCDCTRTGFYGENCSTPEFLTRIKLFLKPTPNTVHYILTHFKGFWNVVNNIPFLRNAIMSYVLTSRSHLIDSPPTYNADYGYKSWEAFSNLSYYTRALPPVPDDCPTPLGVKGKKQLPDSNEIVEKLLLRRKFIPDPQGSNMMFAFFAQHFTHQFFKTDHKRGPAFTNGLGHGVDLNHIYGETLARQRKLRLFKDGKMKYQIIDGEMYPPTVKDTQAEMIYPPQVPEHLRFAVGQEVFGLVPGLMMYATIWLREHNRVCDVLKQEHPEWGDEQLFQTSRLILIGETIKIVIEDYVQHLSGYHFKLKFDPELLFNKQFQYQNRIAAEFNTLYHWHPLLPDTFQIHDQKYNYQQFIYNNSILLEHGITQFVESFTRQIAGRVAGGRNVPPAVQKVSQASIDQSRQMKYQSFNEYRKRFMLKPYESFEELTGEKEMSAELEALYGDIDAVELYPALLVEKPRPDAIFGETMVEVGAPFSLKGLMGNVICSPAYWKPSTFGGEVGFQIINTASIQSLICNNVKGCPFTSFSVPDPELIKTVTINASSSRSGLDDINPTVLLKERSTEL
Kind of data set: COX Fluorescent Inhibitor Screening Assay, COX-2. In kind it is biochemical. The note with it: in duplicate. How it is done: COX inhibition activity against ovine COX-1 and human COX-2 was determined using the fluorescence-based COX assay COX Fluorescent Inhibitor Screening Assay Kit (Cayman Chemical Company, Ann Arbor, MI, USA) according to the manufacturer’s instructions as previously reported by us. All compounds were screened at a concentration of 100 µM in duplicate.

In the next data set the test system is A549 lung adenocarcinoma. As to the kind of experiment: Cell viability, MTT assay, A549. The conditions noted are these: 72 h, mean ± SD. In kind it is cell-based, human. How it is done: (§1) Five human cell lines (A375 melanoma, A549 lung adenocarcinoma, HCT116 and HT29 colorectal carcinoma, MDA-MB-231 triple-negative breast adenocarcinoma) were used to study the antitumor effects of the di-tert-butylphenols and their respective carborane analogs. All selected cell lines were derived from inflammation-associated tumors.
(§2) After the incubation period, the supernatant was discarded from the wells, and the cells were washed two times with 200 µL of PBS. Next, MTT solution at a final concentration of 0.5 mg/mL was added and incubated at 37 °C until purple formazan crystals were formed (30 min to one hour). After incubation, the dye was discarded. In order to dissolve the formed formazan crystals DMSO was added, and the absorbance was measured at λmax = 540 nm, with the reference/background wavelength of 670 nm. All results are expressed as a percentage of the control value which was arbitrary set to 100%. After 72 h treatment, cells were washed with 200 µL of PBS and fixed with 4% paraformaldehyde (PFA) for 15 min at room temperature (RT). Next, cells were stained with 1% CV solution. After 20 min, cells were washed in tap water and dried on air. Dye was dissolved in 33% acetic acid and the absorbance was measured at λmax = 540 nm, with the reference/background wavelength of 670 nm. Results were expressed as a percentage of the control value which was arbitrary set to 100%.
(§3) 1. General methods, materials, and procedures
(§4) 1.1.1. Reagents and cells
(§5) Reagents and cells were obtained from following manufacturers: Capricorn Scientific GmbH (Hessen, Germany) – Culture medium RPMI-1640, Dulbecco's Modified Eagle Medium (DMEM), and fetal bovine serum (FBS). Serva (Heidelberg, Germany) – Paraformaldehyde (PFA). Sigma (St. Louis, MO, USA) – Ethylenediaminetetraacetic acid (EDTA), Dimethyl sulfoxide (DMSO), chloroquine, CV, Triton X-100, RNase, PI, PBS, 3-MA, CFSE, and fluorescent mounting medium. AppliChem (MO, USA) –MTT. Thermo Fisher Scientific (Waltham, MA, USA) – DHR. R&D Systems (Minneapolis, MN, USA) – ApoStat. BD (Pharmingen, San Diego, SAD) – Annexin V-FITC (AnnV). Biological Industries (Cromwell, CT, USA) – Penicillin Streptomycin solution. American Type Culture Collection (ATCC, Manassas, Virginia, USA) – Human lung carcinoma (A549), human breast adenocarcinoma (MDA-MB-231), human colorectal ade-nocarcinoma (HT-29), human colorectal carcinoma (HCT116) and human melanoma (A375).
(§6) Cell lines (A375, HCT116, HT-29 and MDA-MB-231) were cultivated in HEPES-buffered RPMI-1640 medium while A549 cell line was cultivated in Dulbecco's Modified Eagle Medium (DMEM) which were previously supplemented with 10% heat-inactivated FBS, penicillin (100 units/mL), and streptomycin (100 μg/mL). All cells were kept at 37 °C in a humidified atmosphere with 5% CO2. For viability determi-nation cells were seeded at following densities in 96-well plates: 4 x 10^3 cells/well (A375, HT-29 and MDA-MB-231), 5 x 10^3 cells/well (HCT116), and 3 x 10^3 cells/well (A549). […]
(§7) Afterwards, cells were washed with phosphate-buffered saline (PBS) and stained with AnnV (15 μg/mL) and PI (15 μg/mL). After 15 min incubation at room temperature (RT) protected from light the cells were resuspended in AnnV-binding buffer and analysed using flow cytom-etry. HCT116 cells were incubated with pan-caspase inhibitor Apostat for 30 min at 37 °C to determine whether detected apoptosis was mediated by caspase activation. Afterwards, cells were washed with PBS and analyzed using flow cytometry. HCT116 cells were stained with 1 µg/mL of AO solution for 15 min at 37 °C to detect the presence of autophagic cell death. Afterwards cells were washed with PBS, resuspended and analyzed by flow cytometry (CyFlow® Space Partec using the PartecFloMax® software
A general note: Tetrazolium assays rely on reduction of a dye to a coloured formazan, in cell work by metabolically active cells.

The test system of data set [2] is HCT116 colorectal carcinoma. Kind of data set: Cell viability, MTT assay, HCT116. The data set is classed as cell-based, human. The conditions noted are these: 72 h, mean ± SD. On the procedure:
as §1, §2, §3, §4, §5, §6
(§8) Afterwards, cells were washed with phosphate-buffered saline (PBS) and stained with AnnV (15 μg/mL) and PI (15 μg/mL). […]
(§9) PBS and analyzed using flow cytometry. HCT116 cells were stained with 1 µg/mL of AO solution for 15 min at 37 °C to detect the presence of autophagic cell death. Afterwards cells were washed with PBS, resuspended and analyzed by flow cytometry (CyFlow® Space Partec using the PartecFloMax® software

Data set [3] has as its system HT-29 colorectal carcinoma. Kind of data set: Cell viability, MTT assay, HT-29. The data set is classed as cell-based, human. The note with it: 72 h, mean ± SD. On the procedure:
as §1, §2, §3, §4, §5, §6, §7

Another data set concerns A375 melanoma. As to the kind of experiment: Cell viability, MTT assay, A375. The data set is classed as cell-based, human. The note with it: 72 h, mean ± SD. How it is done: as §1, §2, §3, §4, §5, §6, §8, §9

One may read the % Inhibition as the change of the read-out against control, counted positive when it falls. Usually IC50 stands for the concentration needed to halve the response being measured. A lower IC50 goes with greater potency. “(3E)-1-Hydroxy-12-(methylene-[dihydrofurane-2′(3H)-one])-1,12-dicarba-closo-dodecaborane(12) [KME-4-Cb]”: the “logD7.4, HPLC” value in data set [1] was determined as 1.87. Moreover, at human recombinant COX-2, the “% Inhibition at 100 µM COX-2” value is reported as “n.i. (n.i. = no inhibition (%inhibition below 5%))”. Also, the half-maximal inhibitory concentration (IC50) in the data set with A549 lung adenocarcinoma worked out at 120 ± 7 µM; in data set [2], 88.5 ± 4.3 µM; in data set [3], 139 ± 5.4 µM; in the data set on A375 melanoma it was 83.3 ± 2.3 µM.
“(3E)-1-Hydroxy-12-(methylene-[1′-methoxypyrrolidine-2′-one])-1,12-dicarba-closo-dodecaborane(12) [Compound E-5110-Cb]”: the “logD7.4, HPLC” value in data set [1] is 1.50. The “% Inhibition at 100 µM COX-2” value at human recombinant COX-2 is listed as “n.i. (n.i. = no inhibition (%inhibition below 5%))”. For the same substance, the IC50 in the data set with A549 lung adenocarcinoma was 177 ± 14.5 µM; in data set [2] it was 144 ± 10.5 µM; in data set [3], 120 ± 9.7 µM; with A375 melanoma, 69.3 ± 1.7 µM.
In the case of “1-Hydroxy-12-(thiophen-2′-carbonyl)-1,12-dicarba-closo-dodecaborane(12) [Compound R-830-Cb]”, in data set [1], the “logD7.4, HPLC” value came out at 2.37. At human recombinant COX-2, the “% Inhibition at 100 µM COX-2” value amounted to 6%. Besides, the concentration for half-maximal inhibition (IC50) in the data set on A549 lung adenocarcinoma was 66.5 ± 1.7 µM; in data set [2], 40.9 ± 3.1 µM; in data set [3], 65.6 ± 5.3 µM; in the data set with A375 melanoma, 35.9 ± 0.8 µM.
Regarding “(3E)-1-Hydroxy-12-(methylene-[2′-ethylisothiazolidine-1′,1′-dioxide])-1,12-dicarba-closo-dodecaborane(12) [Compound S-2474-Cb]”, the “logD7.4, HPLC” value in data set [1] amounted to 1.88. Further, the “% Inhibition at 100 µM COX-2” value at human recombinant COX-2 is “n.i. (n.i. = no inhibition (%inhibition below 5%))”. Also, the half-maximal inhibitory concentration (IC50) with A549 lung adenocarcinoma came out at 122 ± 10.4 µM; in data set [2], 108 ± 11.5 µM; in data set [3], 81.8 ± 6.1 µM; in the data set on A375 melanoma, 106 ± 6.3 µM.
